The record followed here is US11110195B2, “Esculentin 1a derivatives and uses thereof” (University of Houston System, priority 2013, dated 2021).

One series in a line: in vitro. The following applies: human, human telomerase immortalized corneal epithelial cells. As to the method:
(§1) Human corneal epithelial cells were incubated with varying concentrations of Esc-1a(1-21)NH2 for 24 hrs then cytotoxicity determined by MTT assay. Data are the mean of 3 independent experiments.
(§2) To determine the toxicity of Esc-1a(1-21)NH2 to human telomerase immortalized corneal epithelial cells, the following experiment was performed. The MTT (3-(4,5-Dimethylthiazole-2-yl)-2,5-diphenyltetrazolium bromide) assay measures the activity of enzymes that reduce the tetrazolium blue dye to a formazan salt. Mitochondrial reductase enzymes will reduce MTT to formazan, which can be visualized by colorimetric reaction the absorbance of which can be quantified.
(§3) MTT assay was performed on human telomerase immortalized corneal epithelial cells treated with different concentrations of the peptide for 24 hrs. The test was performed in triplicate or quadruplicate wells with concentrations of the peptide of up to 100 μM using the following protocol. On day 1, plated the telomerase immortalized epithelial cells at 10,000 cells/well in a 96 well plate. Incubated the plate at 37° C. for […] to allow the cells to attach to the plate and spread. On day 2, incubated the cells in serum free media for at least 6 hrs prior to peptide treatment. On day 3, stimulated the cells with 100, 50, 25, 10, 5, 1, 0.5 and 0.1 μM Esc-1a(1-21)NH2 in quadruplicate for 24 hrs. On day 4, added 50 μl of 0.02% Benzalkonium chloride into 4 wells as a positive control for 15 minutes. Added 50 μl of serum free media into all the other wells (total volume 100 μl). Added 10 μl of MTT stock solution into each of the well. Incubated at 37° C. for 3 hours. At the end of 3 hours purple crystals were visible under the microscope. Added 100 μl of stop solution into each well using a multichannel pipette. Pipetted up and down to dissolve all the crystals. Gently popped the bubbles using a 10 μl tip. Read plate using plate reader at 590 nm abs and 635 nm reference. Subtracted reference OD value (635) from 590 OD value and plotted graph.

Series [1] relates to human telomerase immortalized corneal epithelial cells. The experiment in a line: in vitro. The following applies: 24 hrs. As to the method: as §1, §2, §3
For series [2], the system named is A549 lung epithelial cells. The experiment in a line: Wound healing assay, A549 lung epithelial cells. Format: cell-based, human. Conditions: A549 monolayer. As to the method: The percentage of cell-covered area at each time point is reported on the y-axis. Control (Ctrl) represents cells not treated with the peptides. All data are the mean of at least three independent experiments ±SEM. […] Both peptides were able to stimulate the closure of the gap produced in the monolayer of A549 cells, with the optimal concentration allowing the almost complete coverage of the wound field equal to 10 μM (for the wild type peptide, FIG. 13A) or 4 μM (for the diastereomer, FIG. 13B) within approximately 24 hours or 20 hours, respectively.
As shown in FIGS. 13A-13B, Esc-1a(1-21)NH2 and its diastereomer both stimulated wound closure although at concentrations much higher than were required to induce a similar effect in human corneal epithelial cells. This may reflect cell specific differences.

Series [3] deals with P. aeruginosa ATCC 27853 biofilm. The following applies: 2 hours treatment. As to the method:
(§4) Data points are the mean±SEM of three independent experiments. The levels of statistically significant differences between the two peptides are indicated as follows *P<0.05, **P<0.01, ***P<0.001
(§5) The reference strain and the clinical isolates were grown at 37° C. in Luria-Bertani broth (LB) to mid-log phase (optical density of 0.8 at 590 nm). With the help of tweezers, silicone hydrogel narafilcon A soft CL (1-Day ACUVUE TruEye) were removed from the manufacturer's containers, and washed thrice in phosphate buffered saline (PBS). The lenses were then immersed into wells of a 24-multiwell plate, each well containing 1 mL of bacterial inoculum in 1/10 LB at a concentration of 5×10^4 colony-forming units (CFU)/mL. Noteworthy, the number of bacteria isolated from CL storage cases has been reported to range from 1 to 6×10^4 CFU/case (2, 10). Therefore, in order to reproduce a more realistic level of bacteria to which CLs can be exposed, an inoculum size of 5×10^4 CFU/mL was used for biofilm formation.
(§6) The plate was then incubated in a humidified incubator at 37° C. at 125 rpm to allow biofilm formation on the surface of both lens sides. After 20 hours of incubation, each lens was washed thrice with PBS to remove any non-adherent planktonic cells.
(§7) The lenses were then transferred into wells of a new 24-multiwell plate, each well containing serial dilutions of Esc-1a(1-21)NH2 and Esc-1a(1-21)-1cNH2 in PBS. For […] controls, the lenses were immersed in sterile PBS. The new plate was then incubated at 37° C. for 2 hours with gentle shaking (125 rpm). After peptide treatment, each lens was washed thrice in PBS and transferred into wells of another 24-multiwell plate, each well containing 350 μL of 0.5 mg/mL of 3-(4,5-dimethylthiazol-2-yl)-2,5-diphenyltetrazolium bromide (MTT, from Sigma Aldrich, Milan, Italy) in Hank's solution (136 mM NaCl; 0.34 mM Na2HPO4; 0.44 mMKH2PO4; 5.4 mM KCl; 4.1 mM NaHCO3 pH 7.2, supplemented with 5.5 mM D-glucose) as previously reported (8). The killing of biofilms was determined as a function of the inhibition of MTT reduction to insoluble formazan crystals by bacterial reductases. The plate was incubated again for 2 hours (125 rpm) at 37° C. Formazan crystals were solubilized by the addition of acidified isopropanol. During overnight incubation at room temperature the resulting purple color was absorbed by the lens. Afterward, each lens was soaked in absolute ethanol (500 μL in each well) to decolor it. Aliquots of 100 μL were finally transferred to the wells of a 96-multiwell plate and absorbance was measured at 590 nm using a microplate reader (Infine M 200, Tecan). Untreated bacterial cells in PBS were the control. Percentage of killing was calculated according to the formula: [1−(Abs of treated samples−Abs of blank/Abs of control samples-Abs of blank)][…], where the blank was the solvent PBS.

In the next series the test system is P. aeruginosa R1 biofilm. The following applies: 4 μM, 2 hours treatment. The protocol: as §4, §5, §6, §7
For a further series, the system named is P. aeruginosa ATCC 27853. Conditions: soluble free form, 1 μM, within 20 minutes in PBS.

SMILES strings stand for the structures. Like-named read-outs stand apart in the source and are kept apart here. Residues, ends and D or L forms follow the SMILES beside them.

By viability is commonly meant a read-out of living cells in per cent, often relative to untreated cells. Higher therefore signals less harm to the cells. `CC[C@H](C)[C@H](NC(=O)CN)C(=O)N[C@@H](Cc1ccccc1)C(=O)N[C@@H](CO)C(=O)N[C@@H](CCCCN)C(=O)N[C@@H](CC(C)C)C(=O)N[C@@H](C)C(=O)NCC(=O)N[C@@H](CCCCN)C(=O)N[C@@H](CCCCN)C(=O)N[C@H](C(=O)N[C@@H](CCCCN)C(=O)N[C@@H](CC(N)=O)C(=O)N[C@@H](CC(C)C)C(=O)N[C@@H](CC(C)C)C(=O)N[C@H](C(=O)N[C@@H](CO)C(=O)NCC(=O)N[C@@H](CC(C)C)C(=O)N[C@@H](CCCCN)C(=O)NCC(N)=O)[C@@H](C)CC)[C@@H](C)CC` [Esc-1a(1-21)NH2] (H-GIFSKLAGKKIKNLLISGLKG-NH2; N-terminus assumed) displayed a viability at 24 h, 50 µM in “in vitro” of 75.7%. In addition, in the series “in vitro”, the viability at 24 h, 100 µM amounted to 17.4%. Also, the concentrations significantly cytotoxic entry in series [1] (MTT (FIG. 4)) is on record as “above 50 μM”. The “toxicity to the cells” value in series [1] (concentration below 50 μM) is recorded as “not toxic”. Also, the “optimal concentration allowing almost complete coverage of the wound field” value in series [2] was 10 µM. For the same compound, the “time to almost complete coverage of the wound field” value in series [2] (at optimal concentration) was “approximately 24 hours”. The biofilm killing result in series [3] (4 μM) is recorded as “activity was lost”; in series [3] (32 μM), “more than 50%”; with P. aeruginosa R1 biofilm it was 0%. Besides, in the series on P. aeruginosa ATCC 27853, the killing is around 99.9%.
